{"source": "patent US10253069B2", "about": "“Compositions and methods for regulating arterial tone” (University of Virginia Patent Foundation, priority 2012, dated 2019)", "key": {"[1]": {"tested_on": "thoracodorsal arteries from eNOS−/− animals", "assay": "Pressure myography on thoracodorsal arteries from eNOS−/− mice", "parameters": "species or system mouse"}, "eNOS/Hb α interaction": {"molecular_target": "T1, eNOS/Hb α interaction (Homo sapiens, UniProt P29474)", "T1 construct": "purchased Origene", "T1 sequence (P29474 2-1203 limits assumed)": "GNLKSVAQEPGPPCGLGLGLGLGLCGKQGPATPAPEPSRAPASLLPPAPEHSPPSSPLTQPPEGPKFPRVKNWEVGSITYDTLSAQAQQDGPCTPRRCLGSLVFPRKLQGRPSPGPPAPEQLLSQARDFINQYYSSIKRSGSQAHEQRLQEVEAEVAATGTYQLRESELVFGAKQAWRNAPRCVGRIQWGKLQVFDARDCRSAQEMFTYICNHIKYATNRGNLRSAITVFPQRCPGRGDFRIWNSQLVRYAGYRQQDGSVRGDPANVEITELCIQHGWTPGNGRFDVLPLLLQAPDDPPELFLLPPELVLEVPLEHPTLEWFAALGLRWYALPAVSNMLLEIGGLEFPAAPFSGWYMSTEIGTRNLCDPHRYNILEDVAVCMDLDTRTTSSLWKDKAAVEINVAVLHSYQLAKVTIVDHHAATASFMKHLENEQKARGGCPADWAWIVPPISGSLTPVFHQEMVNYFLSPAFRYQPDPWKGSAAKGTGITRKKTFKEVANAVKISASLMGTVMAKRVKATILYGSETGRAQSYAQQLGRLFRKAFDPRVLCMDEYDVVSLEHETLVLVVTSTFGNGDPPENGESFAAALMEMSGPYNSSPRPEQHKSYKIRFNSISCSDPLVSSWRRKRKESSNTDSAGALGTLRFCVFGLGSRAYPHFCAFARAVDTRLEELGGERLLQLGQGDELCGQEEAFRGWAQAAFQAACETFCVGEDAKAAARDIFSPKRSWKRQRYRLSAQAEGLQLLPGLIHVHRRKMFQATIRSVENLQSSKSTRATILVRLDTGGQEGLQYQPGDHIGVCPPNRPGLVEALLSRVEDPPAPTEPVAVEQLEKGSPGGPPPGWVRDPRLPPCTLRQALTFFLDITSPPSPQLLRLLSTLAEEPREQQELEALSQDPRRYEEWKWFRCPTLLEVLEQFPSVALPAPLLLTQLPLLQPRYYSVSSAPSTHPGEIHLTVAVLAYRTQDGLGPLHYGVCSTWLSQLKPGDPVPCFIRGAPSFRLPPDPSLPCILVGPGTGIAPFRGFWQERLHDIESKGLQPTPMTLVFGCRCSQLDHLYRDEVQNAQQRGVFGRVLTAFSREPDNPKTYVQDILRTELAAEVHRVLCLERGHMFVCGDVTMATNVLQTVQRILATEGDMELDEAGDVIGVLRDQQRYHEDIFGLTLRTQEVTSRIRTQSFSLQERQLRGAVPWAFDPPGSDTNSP", "assay": "Purified eNOS and Hb α protein interaction (co-immunoprecipitation, Western blot)", "assay_type": "binding", "experimental": "Purified Flag-eNOS was purchased from Origene and isolated Hb α chains were generated as previously described^9. Co-immunoprecipitation studies were performed by incubating 1 μg of Flag-eNOS with 5 μmol/L of each peptide (tat-only, Scr X or Hb α X) for 30 minutes at 37° C. while shaking. Then, 1 μg of isolated Hb α chains were added to the Flag-eNOS/peptide complex for an additional 30 minutes at 37° C. shaking. Anti-Flag nickel beads, blocked with 1% bovine albumin serum for 1 hour, were added to each condition for an additional hour with agitation. Proteins were washed 3× with PBS for 15 minutes and purified protein-protein complexes were precipitated using a strong magnet. The nickel beads were incubated with 5×SDS PAGE buffer to elute proteins off the beads. Samples were subjected to Western blot analysis to determine peptide-induced disruption of Hb α and eNOS binding."}, "abdominal aortic rings": {"tested_on": "abdominal aortic rings", "assay": "Abdominal aorta ring assay", "parameters": "species or system mouse", "details": "compared to untreated aortas or aortas treated with Scr X", "experimental": "Abdominal aortas were isolated, cut into 2 mm wide rings and mounted on a DMT myograph system with low bath volumes as previously described^16. Briefly, rings were stretched at 1.2× resting length in Krebs solution and allowed to equilibrate for 30 min at 37° C. prior to depolarization with […] K^+ [i]. Following the high K^+ contraction, rings were returned to Krebs solution and incubated with 5 μmol/L Scr X or Hb α X peptide for 20 minutes. Cumulative concentrations of phenylephrine (PE) (10^−10-10^−4 mol/L) were added to the rings and the magnitude of the tension response measured in milli-newtons."}, "[2]": {"tested_on": "human coronary endothelial cells", "assay": "Nitrite measurements from media of coronary endothelial cells", "assay_type": "cell-based", "experimental": "(§1) Primary coronary endothelial cells (Lonza) were cultured on plastic 6-well dishes as previously described^9. For studies involving basal NO release, endothelial cells were incubated with 5 μmol/L of Scr X or Hb α X for 20 minutes followed by medium collection and nitrite measurements as described below. For bradykinin studies, coronary endothelial cells were grown to confluence followed by serum starvation overnight in a cocktail of Lonza EGM-2 medium supplemented with EGM-2 bullet kit and Opti MEM reduced growth medium using a ratio of 1:9 respectively. The next day, endothelial cells were incubated with Scr X or Hb α X peptide for 20 minutes followed by the addition of 10 μM bradykinin (Sigma) for 5 minutes followed by medium collection for nitrite measurements as described below.\nQuantitation of nitrite in culture medium was measured by chemiluminescence using a Sievers nitric oxide analyzer according to manufacturer's instructions. Quantitation of peaks was analyzed using Origin Pro 6.0 as previously described^9."}, "thoracodorsal arteries": {"tested_on": "thoracodorsal arteries", "assay": "Pressure myography on thoracodorsal arteries, phenylephrine dose response with peptides", "parameters": "species or system mouse"}, "[3]": {"tested_on": "eNOS phosphorylation on serine 1177", "assay": "Western blot of pS1177 eNOS in coronary endothelial cells", "assay_type": "cell-based, human", "details": "5 μmol/L peptide, 20 minutes", "experimental": "as §1\nEndothelial cells were harvested in lysis buffer, sonicated and subjected to electrophoresis using 10% Bis-Tris gels (Invitrogen) as previously described^13. Proteins were transferred to nitrocellulose, incubated with phospho-eNOS S1177 (BD Biosciences) or total eNOS (Sigma) and visualized and quantitated using Li-Cor Odyssey Imager as previously described^14."}}, "data": [{"substance": "Peptide LSFPTTKTYF (SEQ ID NO:2), first ten amino acids of the Hb α sequence, with HIV-tat tag YGRKKRRQRRR at the N-terminus [Hb α X]", "values": [{"measurement": "Magnitude of phenylephrine induced constriction", "setting": "[1]", "result": "no alteration"}, {"measurement": "eNOS/Hb α interaction", "setting": "eNOS/Hb α interaction; 5 μmol/L peptide, Flag-eNOS and purified Hb α chains", "result": "significantly disrupted"}, {"measurement": "Inhibition of binding", "setting": "eNOS/Hb α interaction; purified Hb α and eNOS protein", "result": "> 90", "unit": "%"}, {"measurement": "Phenylephrine dose response curves", "setting": "abdominal aortic rings", "result": "no significant change"}, {"measurement": "Nitrite accumulation following stimulation with bradykinin", "setting": "[2]; 10 μM bradykinin, 5 minutes, Scr X vs Hb α X", "result": "no change"}, {"measurement": "Accumulation of nitrite in the culture medium, basal", "setting": "[2]; unstimulated cells", "result": "no differences"}, {"measurement": "Constriction in phenylephrine dose response curves", "setting": "thoracodorsal arteries; compared to untreated arteries", "result": "significant decrease in constriction"}, {"measurement": "Emax, vascular reactivity dose response curves", "setting": "thoracodorsal arteries; phenylephrine dose response, thoracodorsal arteries perfused with peptide", "result": "68.0 ± 5.3", "unit": "% initial diameter"}, {"measurement": "Constriction in phenylephrine dose response curves with L-NAME", "setting": "thoracodorsal arteries; plus L-NAME 100 μmol/L", "result": "reversed"}, {"measurement": "Basal eNOS phosphorylation on serine 1177", "setting": "[3]", "result": "no differences"}]}]}
